{
  "source": "patent US7968558B2",
  "about": "“Amidine derivatives of 2-heteroaryl-quinazolines and quinolines; potent analgesics and anti-inflammatory agents” (Rottapharm S.p.A., priority 2006, dated 2011)",
  "key": {"[1]": {"test_system": "IL-1β induced PGE2 production", "assay": "PGE2 production induced by IL-1β in chondrocyte cell culture", "format": "cell-based, rabbit", "conditions": "Oryctolagus cuniculus, Chondrocyte, read-out: Effects on PGE2 production in rabbit Chondrocyte culture, IC50", "text": "Conversely, compounds of the invention are able to inhibit, at micromolar concentration, IL-1β induced PGE2 production in cellular systems. This inhibition effect on the production of the pro-inflammatory mediator PGE2, instead of to be ascribed to a direct COX-2 inhibition, as happens with Celecoxib and other COX-2 inhibitors, is in this case due to inhibition of cytokine induced COX-2 expression as proven in cellular systems.\nEffectiveness in inhibition of PGE2 production induced by IL-1β in chondrocyte cell culture, as well as inhibition in IL-1β induced COX-2 expression in SW1353 human chondrosarcoma cell line, is summarized in Table 2, for representative compounds of the invention."}, "[2]": {"test_system": "mechanical hyperalgesia associated with STZ-induced diabetes", "assay": "STZ-induced diabetes mechanical hyperalgesia (neuropathic pain)", "format": "in vivo, rat", "description": "Streptozotocin (STZ)-induced diabetes in the rat has been increasingly used as a model of painful diabetic neuropathy to assess the efficacies of potential analgesic agents (C. Courteix, Pain 1993, 53, 81-8). The compounds of the invention were tested for efficacy in reducing mechanical hyperalgesia associated with STZ-induced diabetes in the rat, according to the experimental model as described by the literature. Diabetes was produced with the injection of a single dose (75 mg/Kg i.p.) of STZ. In the following four weeks after the induction of diabetes the clinical symptoms (weight, body and skin temperature, motility and hyperglycemia) progressively developed by the animals, are strictly monitored. After four weeks, the scores obtained in diabetic rats to various pain stimuli (in particular mechanical stimuli) were grater than those in normal rats, indicating hyperalgesia. The hyperalgesia induced by diabetes was evaluated using the Randall-Selitto method as above described, and quantitated using the analgesimeter. Also in this case, the difference in the mechanical pain threshold between the basal value (generally 230-250 g) and the one tolerated by the animals treated with the drug, is defined as mechanical hyperalgesia. The compounds of the invention were administered i.p. (solution, Tween 80, 10% in saline) at different doses, and mechanical hyperalgesia was measured at the reported time, as maximum percent effect (MPE) which represents the difference (%) in pain threshold between the animals treated with the drug and the controls that received only the vehicle, compared with the weight borne by naïf non-diabetic controls. A 100% protection means that the diabetic animals treated with the compound can tolerate the same stimulus (weight) as the naïf non-diabetic animals. MPE higher than 100% means that the diabetic animal treated with the compound can tolerate stimuli (weight) higher than the control non-diabetic animals (hypoalgesia)."}, "[3]": {"test_system": "acetic acid-induced abdominal writhes", "assay": "Acetic acid-induced writhing test", "format": "in vivo, mice", "conditions": "for MPE (%): 30 min. before acetic acid", "description": "With the aim of assessing whether the compounds of the invention are able to inhibit responses to peritoneal irritation-induced visceral pain, the acetic acid-induced writhing assay was used in mice to determine the degree of anti-nociception.\nThe writhing test is a model of inflammatory pain that has long been used as a screening tool for evaluation of analgesic and anti-inflammatory agents (HDJ Collier, B. J. Pharmacol Chemother., 1968, 32, 295-310). The test was performed inducing nociception by an i.p. injection of acetic acid 1%, 0.1 mL/10 g of body weight. Mice were pre-treated (subcutaneously, s.c., three different doses: 3, 10, 30 mg/Kg) with the tested compounds 30 min. before acetic acid injection, while control animals received a similar volume of saline solution. A group of mice was treated with Paracetamol (200 mg/Kg, s.c.) as reference drug. The number of abdominal writhes (full extension of both hind paws) was cumulatively counted every 5 minutes over a period of 20 min. immediately after the acetic acid injection. The anti-nociceptive activity was expressed as inhibition of abdominal writhes as maximum percent effect (MPE), which represents the difference (%) in pain threshold between the animals treated with the drug and the ones that received only the vehicle."}},
  "note": "pIC50: −log10 of the molar value.",
  "data": [
    {"compound": "CC(=N)Nc1ccc2nc(-c3ccc4c(c3)OCO4)ncc2c1", "note": "[Example 1, N-[2-(1,3-benzodioxol-5-yl)quinazolin-6-yl]acetamidine]", "values": [
      {"measurement": "pIC50", "setting": "[1]", "result": 5.39},
      {"measurement": "MPE 0.5 hrs.", "setting": "[2]; 3 mg/Kg i.p.", "result": 15, "unit": "%"},
      {"measurement": "MPE 1.5 hrs.", "setting": "[2]; 3 mg/Kg i.p.", "result": 30, "unit": "%"},
      {"measurement": "MPE 3 hrs.", "setting": "[2]; 3 mg/Kg i.p.", "result": 45, "unit": "%"},
      {"measurement": "MPE 0.5 hrs.", "setting": "[2]; 10 mg/Kg i.p.", "result": 59, "unit": "%"},
      {"measurement": "MPE 1.5 hrs.", "setting": "[2]; 10 mg/Kg i.p.", "result": 34, "unit": "%"},
      {"measurement": "MPE 3 hrs.", "setting": "[2]; 10 mg/Kg i.p.", "result": 46, "unit": "%"},
      {"measurement": "MPE 0.5 hrs.", "setting": "[2]; 30 mg/Kg i.p.", "result": 110, "unit": "%"},
      {"measurement": "MPE 1.5 hrs.", "setting": "[2]; 30 mg/Kg i.p.", "result": 137, "unit": "%"},
      {"measurement": "MPE 3 hrs.", "setting": "[2]; 30 mg/Kg i.p.", "result": 101, "unit": "%"},
      {"measurement": "MPE (%)", "setting": "[3]; 3 mg/Kg s.c.", "result": 30, "unit": "%"},
      {"measurement": "MPE (%)", "setting": "[3]; 10 mg/Kg s.c.", "result": 33, "unit": "%"},
      {"measurement": "MPE (%)", "setting": "[3]; 30 mg/Kg s.c.", "result": 89, "unit": "%"},
      {"measurement": "ED50", "setting": "[3]; Mus musculus, sc, writhing test, read-out: ED50", "result": 9.8, "unit": "mg/kg"}
    ]}
  ]
}
